This is an account of results in PMC12751012, “Nanoscale Direct-to-Biology Optimization and Structural Insights into Selective S. aureus TrmD Inhibitors” (Journal of Medicinal Chemistry, 2025).

Structures are written as SMILES.

In this test the target is T1, S. aureus TrmD (Staphylococcus aureus, UniProt Q2FZ43).
T1 construct: made in house; host or cells: E. coli BL21
T1 sequence (Q2FZ43 1-245): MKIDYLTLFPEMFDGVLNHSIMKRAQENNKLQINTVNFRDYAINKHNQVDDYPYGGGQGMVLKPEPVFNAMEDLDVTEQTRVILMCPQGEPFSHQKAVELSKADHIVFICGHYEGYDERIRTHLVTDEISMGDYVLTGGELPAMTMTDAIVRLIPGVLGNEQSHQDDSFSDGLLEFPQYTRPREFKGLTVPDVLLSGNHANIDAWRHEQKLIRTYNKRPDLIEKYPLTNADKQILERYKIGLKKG
The test can be described thus: nanoSAR direct-to-biology FP displacement screening of crude triazoles. Format: binding. The conditions noted are these: crude triazole at 1 μM, assuming full conversion; 500 nM TrmD, 10 nM tracer 4; read-out: % displaced tracer. An excerpt:
Next, we conducted an S. aureus TrmD-targeting nanoSAR study. For this, alkyne 7 was reacted on a 96 nmol scale with an in-house diversity-oriented azide library (N = 320, mean pairwise Tanimoto similarity = 0.11) designed to cover a large chemical fragment space, generating a panel of 320 crude triazoles ready for FP assay investigation. The composition of the azide library is designed to be chemically diverse in several categories, including physicochemical properties such as polar surface area, lipophilicity, and the number of hydrogen bond donors and acceptors, as well as structural features like the number of aromatic rings (Figure S23). A complete list of chemical structures included in the azide library can be found in Table S4. In situ reaction conditions for CuAAC were adapted from Gehrtz et al., utilizing CuSO4, which is reduced in situ to Cu(I) by sodium ascorbate and stabilized by TBTA. Degassed water and DMSO (1:1) were used as solvents to prevent the oxidation from Cu(I) to Cu(II). For the synthesis of the triazole library, a master mix was prepared, containing all reaction components except the azides. All reactions were started by the addition of the respective azide in 24 μL at a final product concentration of 4 mM (96 nmol). Reaction mixtures were incubated for 16 h at room temperature and under an argon atmosphere in sealed 96-well plates.
For FP assay screening, we used 500 nM of S. aureus TrmD and 10 nM of tracer 4 in a total volume of 40 μL in 96-well plates. We performed control measurements and defined 10 nM of tracer 4 in buffer as 100% displacement and the DMSO control as 0% tracer displacement. […] The results of the FP screening were visualized in a waterfall plot and plate-based heatmaps (Figure , Figure S3).
Fluorescence polarization (FP) assays were performed as follows. The assays for H. influenzae TrmD have been described previously. All assays were conducted in technical triplicate using black 96-well half area plates. For the FP assays, a tracer (20 nM Cy5TPD for E. coli and H. influenzae TrmD, 10 nM tracer 4 for S. aureus TrmD) was mixed with the respective enzyme (2 μM E. coli TrmD, 2 μM H. influenzae TrmD, 500 nM S. aureus TrmD) in buffer (E. coli and H. influenzae TrmD: 50 mM HEPES, 500 mM NaCl, 5% Glycerol, pH 7.5, S. aureus TrmD: 40 mM Tris HCl, 100 mM NaCl, 10 mM MgCl2, 5% Glycerol, pH 7.5). The compounds were added in varying concentrations for K D-value determination. […] The Z-factor for tracer 4 was determined by measuring 48 replicates of the free tracer (positive controls, PC) and 48 replicates of a mixture of enzyme and tracer (negative controls, NC). The Z-factor is defined in terms of the means (μ) and standard deviations (σ) of the positive and negative controls and calculated as Z = 1–(3*(σnc + σpc)/(μnc–μpc)). […] Polarization values (mP) were determined from polarization-specific parallel and orthogonal fluorescence intensities. K D-values were calculated in GraphPad Prism 8.0.1 using the four-parameter Hill equation: y(% tracer bound) = bottom + ([ligand]-slope) × (top–bottom)/([ligand]-slope + K Dslope).
A commercial azide diversity library (Enamine) containing 320 azides at a concentration of 100 mM in DMSO in a 96-well tube rack was employed for this nanoSAR study. For the reaction of the azides with alkyne 7 via CuAAC, a master mix was prepared. […] The solvents were degassed with argon to avoid oxidation of the copper(I) during the reaction. To each well of a 96-well PCR plate (Applied Biosystems MicroAmp) were added 23 μL of the master mix and 1 μL of the 100 mM azide stock. The final concentrations in the Mastermix were: 8.7 mM sodium ascorbate (8.3 mM in reaction well), 1.1 mM TBTA (1.0 mM in reaction well), 4.3 mM 7 (4.1 mM in reaction well), 1.3 mM CuSO4×5 H2O (1.2 mM in reaction well).
Turning to `O=c1[nH]cnc2[nH]cc(-c3cn([C@H]4CCCNC4)nn3)c12` [Compound 01B01, O=C1NC=NC=2NC=C(C=3N=NN(C3)[C@@H]4C[NH2+]CCC4)C12], the inhibition at 1 µM was found to be 29%. `CCOP(=O)(CCCn1cc(-c2c[nH]c3nc[nH]c(=O)c23)nn1)OCC` [Compound 01H12, P(=O)(OCC)(OCC)CCCN1N=NC(C=2C=3C(=O)NC=NC3NC2)=C1]: the inhibition at 1 µM was found to be 33%.

`Cc1ccc2c(c1)[C@H](n1cc(-c3c[nH]c4nc[nH]c(=O)c34)nn1)CCC2` [Compound 01B04, O=C1NC=NC=2NC=C(C=3N=NN(C3)[C@H]4c5c(ccc(c5)C)CCC4)C12]: the inhibition at 1 µM stood at 27%. As for `O=c1[nH]cnc2[nH]cc(-c3cn(-c4cc(F)cc(F)c4)nn3)c12` [Compound 03F09, Fc1cc(F)cc(N2N=NC(C=3C=4C(=O)NC=NC4NC3)=C2)c1], the figure is 25%; as for `O=c1[nH]cnc2[nH]cc(-c3cn(C[C@H]4C[C@@H]5C[C@@H]5C4)nn3)c12` [Compound 03A08, O=C1NC=NC=2NC=C(C=3N=NN(C3)C[C@@H]4C[C@@H]5[C@@H](C5)C4)C12], 76%; as for `CC(C)(C)OC(=O)N[C@@]12CC[C@@H](C[C@H]1n1cc(-c3c[nH]c4nc[nH]c(=O)c34)nn1)C2` [Compound 02G08, O=C(OC(C)(C)C)N[C@@]12[C@H](N3N=NC(C=4C=5C(=O)NC=NC5NC4)=C3)C[C@@H](C1)CC2], 12%.

With `O=c1[nH]cnc2[nH]cc(-c3cn(-c4ccc(Cl)cn4)nn3)c12` [Compound 02C03, Clc1cnc(N2N=NC(C=3C=4C(=O)NC=NC4NC3)=C2)cc1], the inhibition at 1 µM is -1.83%. With `O=c1[nH]cnc2[nH]cc(-c3cn(C[C@@H]4CCOC4)nn3)c12` [Compound 02D06, O=C1NC=NC=2NC=C(C=3N=NN(C3)C[C@H]4COCC4)C12], the inhibition at 1 µM was determined as 26%. As to `COC(=O)c1sccc1-n1cc(-c2c[nH]c3nc[nH]c(=O)c23)nn1` [Compound 01D11, S1C(C(=O)OC)=C(N2N=NC(C=3C=4C(=O)NC=NC4NC3)=C2)C=C1], the inhibition at 1 µM is 21%.

Turning to `CC(C)CN1CCO[C@H](Cn2cc(-c3c[nH]c4nc[nH]c(=O)c34)nn2)C1` [Compound 01G03, O=C1NC=NC=2NC=C(C=3N=NN(C3)C[C@H]4OCC[N@H+](C4)CC(C)C)C12], the inhibition at 1 µM is 46%. As for `COC[C@H](O)Cn1cc(-c2c[nH]c3nc[nH]c(=O)c23)nn1` [Compound 02G06, O=C1NC=NC=2NC=C(C=3N=NN(C3)C[C@@H](O)COC)C12], the figure is 13%. The figure for `O=c1[nH]cnc2[nH]cc(-c3cn(CCF)nn3)c12` [Compound 01C05, FCCN1N=NC(C=2C=3C(=O)NC=NC3NC2)=C1] is 22%; for `Cc1csc(C[C@H](C)n2cc(-c3c[nH]c4nc[nH]c(=O)c34)nn2)n1` [Compound 01E11, S1C(=NC(=C1)C)C[C@@H](N2N=NC(C=3C=4C(=O)NC=NC4NC3)=C2)C] it is 31%; for `O=c1[nH]cnc2[nH]cc(-c3cn(-c4cc(F)cc(Cl)c4)nn3)c12` [Compound 01H10, Clc1cc(F)cc(N2N=NC(C=3C=4C(=O)NC=NC4NC3)=C2)c1] it is 12%.

As for `COc1ccccc1[C@H](O)Cn1cc(-c2c[nH]c3nc[nH]c(=O)c23)nn1` [Compound 03G07, O=C1NC=NC=2NC=C(C=3N=NN(C3)C[C@@H](O)c4c(OC)cccc4)C12], the inhibition at 1 µM is 37%. As for `C[C@H](c1ccc(Cl)cc1)n1cc(-c2c[nH]c3nc[nH]c(=O)c23)nn1` [Compound 02H11, Clc1ccc(cc1)[C@H](N2N=NC(C=3C=4C(=O)NC=NC4NC3)=C2)C], the figure is 41%. The figure for `O=c1[nH]cnc2[nH]cc(-c3cn(CCN4CCOCC4)nn3)c12` [Compound 01E07, O=C1NC=NC=2NC=C(C=3N=NN(C3)CC[NH+]4CCOCC4)C12] is 34%.

As to `O=c1[nH]cnc2[nH]cc(-c3cn(CCCc4ccccc4)nn3)c12` [Compound 03H07, O=C1NC=NC=2NC=C(C=3N=NN(C3)CCCc4ccccc4)C12], the inhibition at 1 µM was 61%. As for `O=c1[nH]cnc2[nH]cc(-c3cn(C[C@H]4CCCO4)nn3)c12` [Compound 01C06, O=C1NC=NC=2NC=C(C=3N=NN(C3)C[C@@H]4OCCC4)C12], the figure is 24%; as for `Cc1ccccc1Cn1cc(-c2c[nH]c3nc[nH]c(=O)c23)nn1` [Compound 02G09, O=C1NC=NC=2NC=C(C=3N=NN(C3)Cc4c(cccc4)C)C12], 75%.

In the case of `O=c1[nH]cnc2[nH]cc(-c3cn(Cc4ccc(-n5cccn5)cc4)nn3)c12` [Compound 02E09, O=C1NC=NC=2NC=C(C=3N=NN(C3)Cc4ccc(N5N=CC=C5)cc4)C12], the inhibition at 1 µM came out at 62%.

In the case of `CCNCCn1cc(-c2c[nH]c3nc[nH]c(=O)c23)nn1` [Compound 03E05, O=C1NC=NC=2NC=C(C=3N=NN(C3)CC[NH2+]CC)C12], the inhibition at 1 µM worked out at 87%. The figure for `O=c1[nH]cnc2[nH]cc(-c3cn([C@@H]4CCOC5(CCNCC5)C4)nn3)c12` [Compound 01B07, O=C1NC=NC=2NC=C(C=3N=NN(C3)[C@H]4CC5(OCC4)CC[NH2+]CC5)C12] is 34%. Regarding `CC(F)(F)c1cccc(Cn2cc(-c3c[nH]c4nc[nH]c(=O)c34)nn2)n1` [Compound 01H01, FC(F)(c1nc(ccc1)CN2N=NC(C=3C=4C(=O)NC=NC4NC3)=C2)C], the inhibition at 1 µM was found to be 63%.

On to `O=c1[nH]cnc2[nH]cc(-c3cn(C[C@@H]4CCCCC4(F)F)nn3)c12` [Compound 04H03, F[C@@]1(F)[C@H](CN2N=NC(C=3C=4C(=O)NC=NC4NC3)=C2)CCCC1], for which the inhibition at 1 µM was 78%. As for `Cc1cc(F)ccc1[C@H](C)n1cc(-c2c[nH]c3nc[nH]c(=O)c23)nn1` [Compound 03F07, Fc1cc(c(cc1)[C@@H](N2N=NC(C=3C=4C(=O)NC=NC4NC3)=C2)C)C], the figure is 51%. The figure for `O=C1CC[C@@H](N2Cc3cc(-n4cc(-c5c[nH]c6nc[nH]c(=O)c56)nn4)ccc3C2=O)C(=O)N1` [Compound 01H08, O=C1N([C@H]2C(=O)NC(=O)CC2)Cc3c1ccc(N4N=NC(C=5C=6C(=O)NC=NC6NC5)=C4)c3] is 23%. The figure for `O=c1[nH]cnc2[nH]cc(-c3cn(C4COC4)nn3)c12` [Compound 03G09, O=C1NC=NC=2NC=C(C=3N=NN(C3)C4COC4)C12] is 19%; for `N#Cc1cc(Cl)ccc1-n1cc(-c2c[nH]c3nc[nH]c(=O)c23)nn1` [Compound 02H02, Clc1cc(C#N)c(N2N=NC(C=3C=4C(=O)NC=NC4NC3)=C2)cc1] it is 0%. `COc1nc(OC)nc(-n2cc(-c3c[nH]c4nc[nH]c(=O)c34)nn2)n1` [Compound 03F05, O=C1NC=NC=2NC=C(C=3N=NN(c4nc(OC)nc(OC)n4)C3)C12]: the inhibition at 1 µM turned out to be 33%.

Regarding `COc1ccc(C)cc1[C@@H](C)n1cc(-c2c[nH]c3nc[nH]c(=O)c23)nn1` [Compound 04E04, O=C1NC=NC=2NC=C(C=3N=NN(C3)[C@@H](c4c(OC)ccc(c4)C)C)C12], the inhibition at 1 µM amounted to 65%. The figure for `O=C(O)c1ccc(Cn2cc(-c3c[nH]c4nc[nH]c(=O)c34)nn2)cc1` [Compound 02C11, [O-]C(=O)c1ccc(cc1)CN2N=NC(C=3C=4C(=O)NC=NC4NC3)=C2] is 43%.
